Assay [1] has as its system THP-1 cells. The experiment in a line: DNA damage by γ-H2A.X foci and western blot in THP-1 cells. Format: cell-based, human. The conditions noted are these: for number of γ-H2A.X foci compared to untreated cells: single agent, Bleomycin 5 μM, Doxorubicin 0.1 μM, Etoposide 0.1 μM. As to the method:
DNA damage evaluation by analysis of γ-H2A.X foci. […] Lower panels show γ-H2A.X signals only. […] In FIG. 6C, DNA damage was assessed by γ-H2A.X western blot in drug-treated THP-1 cell extracts.
FIG. 10B is a series of images showing immunofluorescence microscopy of γ-H2A.X foci in untreated or drug-treated (Doxorubicin 0.1 μM, palbociclib 500 nM) THP-1 cells. γ-H2A.X light gray, DAPI dark gray. In FIG. 10C, apoptosis was analyzed by Caspase 3/7 activity by flow cytometry.
The role of chromatin structure in cytotoxic agent-induced DNA damage was also assessed by investigating the formation of γ-H2A.X foci by confocal microscopy.
On the technique in general: Immunoblotting shows a protein as a band on a membrane.

Assay [2] relates to Y641 and A677 mutants of EZH2. The conditions noted are these: cited from earlier work.
For another assay, the system named is H3K27me3 in THP-1 cells. The experiment in a line: H3K27me3 levels in THP-1 cells (CAA, western blot, ChIP-seq). It is filed as cell-based, human. On the procedure: (§1) FIGS. 4A-4B illustrate the ability of EZH2 inhibitor to affect H3K27me3 binding. […] Cells were labeled with EdU for 15 minutes. CAA was performed with H3K27me3 antibody. Following PLA, cells were immunostained for EdU.
(§2) Box plot of ChIP-seq read density is shown. FIG. 14B is an example showing the COL93A locus.
(§3) Chromatin assembly assay: Cells were grown on chamber slides, pulse-labeled with 5 μM EdU and fixed at room temperature with 4% formaldehyde in PBS for 15 min, washed with PBS, and permeabilized with 0.3% Triton for 15 min. Cells were subjected to Click-iT reaction with biotin-azide for 30 min. The PLA reactions (Olink) between the anti-biotin antibody and antibodies to other proteins were performed as described by Olink. Following PLA, cells were immunostained with anti-biotin Alexa Fluor 488 antibody to control the specificity of CAA. The results of CAA experiments shown in FIG. 1A were quantified by counting the number of PLA signals per EdU-labeled nuclei in 50 cells of each of the three independent experiments. The nature of the results in the rest of the figures alleviated the need to quantify the results of these assays.
(§4) Since DNA-damaging agents (eg., Doxorubicin) preferentially induce double strand breaks (DSBs) in more de-condensed regions of chromatin, some epigenetic inhibitors may render leukemic cells more susceptible to DNA damage. […]

For assay [3], the system named is THP-1 and human CD34+ primary AML cells. The experiment in a line: DNA content analysis and myeloid marker flow cytometry of AML cells. Format: cell-based. The conditions noted are these: GSK126 alone. (In general: A flow cytometer gives signals particle by particle.)
The test system of assay [4] is THP-1 cells. Kind of assay: Comet assay in drug-treated THP-1 cells. Conditions: co-treatment with GSK126 and Doxorubicin. Format: cell-based, human.
The test system of assay [5] is primary ASXL1-mutated AML sample. Kind of assay: γ-H2A.X foci in primary ASXL1-mutated AML sample. It is filed as cell-based, human. Conditions: CD34+ cells with frameshift ASXL1 mutation (G646fs*12); co-treatment with GSK126 (5 nM), 24 hours. As to the method: FIGS. 13A-13B illustrate accumulation of H3K27me3 on nascent DNA of a human primary ASXL1 mutated AML sample. In FIG. 13A, DNA was labeled with EdU for 15 minutes. Following conjugation with biotin, CAA was performed between nascent DNA (biotin) and H3K27me3. PLA (bright gray), Edu (biotin; light gray), DAPI; dark gray). Lower panels show PLA signals only. […] DNA Damage evaluation by analysis of γ-H2A.X foci. […] Immunofluorescence microscopy of γ-H2A.X foci (representative cells). γ-H2A.X light gray, DAPI, dark gray. Lower panels show γ-H2A.X signals only.
Mutations of ASXL1 are more frequent than EZH2 mutations and may cause a decrease in global H3K27me3 level and in the accumulation of this marker on nascent DNA. The H3K27me3 marker was not detected on Edu-labeled, nascent DNA of CD34+ […] cells carrying a frameshift ASXL1 mutation causing a premature termination (G646fs*12) in ˜50% of the cells, favoring a state of ‘open’ chromatin (FIGS. 13A and 13B).

Assay [6] deals with THP-1 cells. Kind of assay: RAD51 foci formation in Doxorubicin-treated THP-1 cells. It is filed as cell-based, human. The conditions noted are these: GSK126 5 μM, Doxorubicin 0.1 μM; 12, 24, 36, 72 hrs. The text has this: FIG. 7 illustrates the kinetics of RAD51 foci formation in Doxorubicin-treated THP-1 cells. […] RAD51 foci were detected by immunofluorescence in the pre-washed cultures (12 hrs), and at 24, 36, and 72 hrs post Doxorubicin washing.

Assay [7] relates to THP-1 cells. Kind of assay: Apoptosis by Caspase-3/7 activity (flow cytometry) in THP-1 cells. It is filed as cell-based, human. As to the method: (§5) FIGS. 9A-9B illustrate apoptosis of drug-treated cells. THP-1 (FIG. 9A) and primary CD34+ AML samples (FIG. 9B) were left untreated (CNTR), treated with Doxorubicin alone (0.1 μM), Etoposide alone (0.5 μM) or in combination with the EZH2 inhibitor GSK-126 (0.5 μM) for 48 hours. Apoptosis was analyzed by Caspase-3/7 activity by flow cytometry.
FIGS. 10A-10C illustrate that treatment with the CDK4/CDK6 inhibitor palbociclib suppresses Doxorubicin-induced DNA damage. […] FIG. 10B is a series of images showing immunofluorescence microscopy of γ-H2A.X foci in untreated or drug-treated (Doxorubicin 0.1 μM, palbociclib 500 nM) THP-1 cells. γ-H2A.X light gray, DAPI dark gray. In FIG. 10C, apoptosis was analyzed by Caspase 3/7 activity by flow cytometry.
THP-1 cells were treated with Palbociclib (500 nM) for 24 hours to induce a G1-arrest. […] Anova ***p<0.001; (Right) Apoptosis analyzed by Caspase 3/7 activity by flow cytometry. Mean+/−SEM. Anova; *p<0.1 **p<0.01
To assess whether cell cycle synchronization through pre-conditioning with a CDK4/6 inhibitor prior to treatment, a subsequent study was performed in which THP-1 cells were treated with Palbociclib (500 nM) for 24 hours to induce a G1-arrest. […] (FIG. 15, Right) Apoptosis of treated cells was also analyzed by Caspase 3/7 activity by flow cytometry.

The test system of assay [8] is primary CD34+ AML samples. The experiment in a line: Apoptosis by Caspase-3/7 activity (flow cytometry) in primary CD34+ AML samples. It is filed as cell-based, human. Conditions: CD34+ AML cells, co-treatment GSK-126 (0.5 μM) and Doxorubicin (0.1 μM), 48 hours. On the procedure: as §5
Assay [9] has as its system THP-1 cells. Kind of assay: ChIP-seq of γ-H2A.X in THP-1 cells. It is filed as cell-based, human. The conditions noted are these: THP-1 cells co-treated with GSK126.
Excerpt: as §2
Without wishing to be bound by theory, a more relaxed chromatin structure may be more susceptible to DNA damage.

Another assay has as its system primary CD34+ AML cells. The experiment in a line: γ-H2A.X foci and comet assay in primary CD34+ AML cells. Format: cell-based, human. Conditions: co-treated with GSK126 (5 μM) and Doxorubicin (0.3 or 0.1 μM), 24 h. An excerpt:
FIGS. 8A-8D illustrate that inhibition of EZH2 enhances DNA damage as assessed by γ-H2A.X foci and comet assay in primary CD34+ AML cells. […] Immunofluorescence microscopy of γ-H2A.X foci (representative cells). γ-H2A.X light gray, DAPI, dark gray. Lower panels show γ-H2A.X signals only. […] Immunofluorescence microscopy of γ-H2A.X foci (representative cells). γ-H2A.X light gray, DAPI, dark gray. Lower panels show γ-H2A.X signals only.

Assay [10] relates to H3K27me3 in AML primary cells. The experiment in a line: H3K27me3 on nascent DNA of AML primary cells (CAA, western blot). It is filed as cell-based, human. Conditions: GSK126 for 12 hours. As to the method:
as §1, §3, §4

Assay [11] relates to primary blasts from AML patient #22324. The experiment in a line: CAA (PLA) between EdU-labeled DNA and ATRIP at sites of DNA damage. Conditions: GSK343 12 hours, then 10 μM Bleomycin 1 hr. It is filed as cell-based, human.
Protocol: Cells were labeled with EdU for 10 minutes and treated with 10 μM Bleomycin (Bleo) for 1 hr. CAA (PLA, dark) was performed between EdU and ATRIP protein. Chromatin assembly assay: Cells were grown on chamber slides, pulse-labeled with 5 μM EdU and fixed at room temperature with 4% formaldehyde in PBS for 15 min, washed with PBS, and permeabilized with 0.3% Triton for 15 min. Cells were subjected to Click-iT reaction with biotin-azide for 30 min. The PLA reactions (Olink) between the anti-biotin antibody and antibodies to other proteins were performed as described by Olink. Following PLA, cells were immunostained with anti-biotin Alexa Fluor 488 antibody to control the specificity of CAA. The results of CAA experiments shown in FIG. 1A were quantified by counting the number of PLA signals per EdU-labeled nuclei in 50 cells of each of the three independent experiments.

With `COc1cccc2c1C(=O)c1c(O)c3c(c(O)c1C2=O)C[C@@](O)(C(=O)CO)C[C@@H]3O[C@H]1C[C@H](N)[C@H](O)[C@H](C)O1` [Doxorubicin], in the assay on THP-1 cells [1] (24 hours), the “number of γ-H2A.X foci compared to untreated cells” value was “markedly increased”.

For the molecule `Cc1cc(C)c(CNC(=O)c2cc(-c3ccc(CN4CCOCC4)cc3)cc3c2cnn3C2CCCC2)c(=O)[nH]1` [EPZ005687], the “inhibition of the Y641 and A677 mutants of EZH2” value in [2] is given as “can also inhibit”.

As for `CC[C@H](C)n1cc(C)c2c(C(=O)NCc3c(C)cc(C)[nH]c3=O)cc(-c3ccc(N4CCNCC4)nc3)cc21` [GSK126], the “chromatin conformation (H3K27me3 on nascent DNA, CAA)” value (in the assay on H3K27me3 in THP-1 cells (GSK126 for 12 hours); in assay [10]) was “switching the chromatin conformation from “closed” to “open”” each time. Besides, the “global levels of H3K27me3 (ChIP-seq)” value in the assay on H3K27me3 in THP-1 cells (GSK126 for 24 hours) was “marked decrease”. In addition, the “number and mean fluorescence intensity of γ-H2A.X foci and γ-H2A.X levels” value in the assay with THP-1 cells [1] (co-treatment of GSK126 (5 μM) with bleomycin, Doxorubicin or etoposide, 24 hours, vs cytotoxic agent alone) is given as “further increased”. Also, the “proliferation of AML cells (DNA content analysis)” value in assay [3] (48 hrs, THP-1 and CD34+ primary AML cells) is on record as “no effect”. Further, in [3] (5 days, AML #013 cells), the “differentiation of AML cells (myeloid marker expression)” value is “no effect”. In addition, in the assay on THP-1 cells [4], the “DNA damage by comet assay” value is recorded as “Increased DNA damage”. In addition, the “Doxorubicin-induced DNA damage (γ-H2A.X foci)” value in assay [5] is on record as “did not increase”. In addition, in the assay with THP-1 cells [6], the “number of RAD51 foci (DSBs repair) following Doxorubicin-induced DNA damage” value is given as “not diminished”. Further, the “apoptosis (Caspase-3/7 activity)” value was “enhanced apoptosis” in the assay on THP-1 cells [7] (THP-1, co-treatment GSK-126 (0.5 μM) and Doxorubicin (0.1 μM), 48 hours); “enhanced apoptosis” in assay [8]. The “DNA damage/apoptosis induced by treatment with Ara-C only” value in the assay on THP-1 cells [7] (THP-1 cells ex vivo, GSK126 with Ara-C) was “did not enhance”. In addition, the “Doxorubicin-induced γ-H2A.X signals (ChIP-seq)” value with THP-1 cells [9] is recorded as “increased”. In addition, in the assay with primary CD34+ AML cells, the “DNA damage (γ-H2A.X foci and comet assay)” value is “Higher levels of DNA damage”.

As to `CCCc1cc(C)[nH]c(=O)c1CNC(=O)c1cc(-c2ccnc(N3CCN(C)CC3)c2)cc2c1cnn2C(C)C` [GSK343], the “recruitment of ATRIP to sites of DNA damage induced by bleomycin” value in assay [11] was “significantly increased recruitment of ATRIP”.

`CCOC(=O)CCNc1cc(N2CCc3ccccc3CC2)nc(-c2ccccn2)n1` [GSKJ4]: the “enhancement of Doxorubicin-induced DNA damage” value with THP-1 cells [1] (THP-1 cells treated with GSKJ4) is “did not enhance”.

As to `COc1cc([C@@H]2c3cc4c(cc3[C@@H](O[C@@H]3O[C@@H]5CO[C@@H](C)O[C@H]5[C@H](O)[C@H]3O)[C@H]3COC(=O)[C@H]23)OCO4)cc(OC)c1O` [etoposide], in the assay with THP-1 cells [1] (24 hours), the “number of γ-H2A.X foci compared to untreated cells” value was “markedly increased”.

bleomycin: the “number of γ-H2A.X foci compared to untreated cells” value in the assay on THP-1 cells [1] (24 hours) was “markedly increased”.

The record behind these values is patent publication US20220354845A1, “METHODS FOR ENHANCING DNA DAMAGE AND APOPTOSIS OF LEUKEMIC CELLS” (Thomas Jefferson University, priority 2019, published 2022).
